Test results as given in US11820745B2, “PKC-activating compounds for the treatment of neurodegenerative diseases” (Synaptogenix, Inc., priority 2008, dated 2023).
Read-outs that look alike come from different tables or passages of the source.

How the values were obtained:
PKCε = target: T1, PKCε (Homo sapiens, UniProt Q02156); assay: Protein kinase C assay, purified/recombinant PKC epsilon (32P incorporation into histones); format: biochemical; conditions: for activation of purified PKCε / concentration needed to activate PKC, times lower than for BR-101 (DCP-LA): FIG. 3
T1 construct: purchased Calbiochem
T1 sequence (Q02156 1-737): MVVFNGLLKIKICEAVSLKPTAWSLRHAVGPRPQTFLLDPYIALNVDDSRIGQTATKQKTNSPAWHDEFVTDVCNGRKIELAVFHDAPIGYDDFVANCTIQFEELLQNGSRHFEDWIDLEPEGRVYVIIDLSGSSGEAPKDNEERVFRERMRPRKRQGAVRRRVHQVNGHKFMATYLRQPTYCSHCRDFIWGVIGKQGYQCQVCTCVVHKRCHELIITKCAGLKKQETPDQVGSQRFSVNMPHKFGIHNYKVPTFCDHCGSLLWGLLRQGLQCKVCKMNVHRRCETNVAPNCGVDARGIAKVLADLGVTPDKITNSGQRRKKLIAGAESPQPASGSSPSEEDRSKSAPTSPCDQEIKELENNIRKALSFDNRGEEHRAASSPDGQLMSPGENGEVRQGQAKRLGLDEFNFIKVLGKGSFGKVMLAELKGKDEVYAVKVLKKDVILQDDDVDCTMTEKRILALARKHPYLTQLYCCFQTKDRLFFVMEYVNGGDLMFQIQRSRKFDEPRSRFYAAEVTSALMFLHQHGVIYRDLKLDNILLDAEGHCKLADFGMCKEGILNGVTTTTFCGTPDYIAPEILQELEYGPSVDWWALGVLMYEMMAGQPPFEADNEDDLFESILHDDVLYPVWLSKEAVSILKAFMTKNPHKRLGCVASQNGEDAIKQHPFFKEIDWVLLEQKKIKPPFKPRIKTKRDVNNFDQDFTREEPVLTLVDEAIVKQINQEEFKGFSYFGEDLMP
Procedure: Protein kinase C assay. Recombinant PKC (1 ng of alpha or epsilon isofonn) was mixed with the BR-101 (UCP-LA) in the presence of 10 micromoiar histones, 5 mM CaCl2, 1.2 μg/μl phosphatidyl-L-serine, 0.18 μg/μl 1,2-dioctanoyl-sn-glycerol (DAG), […], […] (pH 7.4), 0.8 tnIVI EDTA, 4 mM EGTA, 4% glycerol, 8 μg/ml aprotinin, 8 μ/ml leupeptin, and 2 mM benzamidine. 0.5 micro Ci [^y32P]ATP was added. The incubation mixture was incubated for 15 min at 37 degrees in a total volume of 10 microliters. The reaction was stopped by spotting the reaction mixtures on 1×2 cm strips of cellulose phosphate paper (Whatman P81) and immediately washing twice for 1 hr in 0.5% H3PO4. The cellulose phosphate strips were counted in a scintillation counter. In some experiments, phosphatidylserine, diacylglycerol, and/or calcium were removed.
(§1) Protein kinase C assay. Rat hippocampal cells were cultured and scraped in 0.2 ml homogenization buffer (20 triM Tris-HCl, pH 7.4, 50 mM NaF, 1 μg/ml leupeptin, and 0.1 mM PMSF) and homogenized by sonication in a Marsonix micro-probe sonicator (5 see, 10W). To measure PKC, 10 ul of cell homogenate or purified. PKC isozyme (purchased from Calbiochem) was incubated for 15 min at 37° C. in the presence of 10 μM histones, 4.89 mM CaCl2, 1.2 μg/μl phosphatidyl-L-serine, 0.18 μg/μl 1,2-dioctanoyl-sn-glycerol, 10 mM MgCl2, 20 mM HEPES (pH 7.4), 0.8 mM EDTA, 4 mM EGTA, 4% glycerol, 8 μg/ml aprotinin, 8 μg/ml leupeptin, and 2 mM benzamidine. 0.5 μCi [^γ-32P]ATP was added and ^32P-phosphoprotein formation was measured by adsorption onto phosphocellulose as described previously. Nelson and Alkon, J. Neurochemistry. 1995; 65: 2350-57. For measurements of activation by BR-101 (DCP-LA) and similar compounds, PKC activity was measured in the absence of diacylglycerol and phosphatidyl serine, as described by Kanno et al., and PKC δ, ε, η, and μ were measured in the absence of added EGTA and CaCl2, as described by Kanno et al., J. Lipid Res. 2006; 47: 1146-50. Low concentrations of Ca^2+ are used because high Ca^2+ interacts with the PKC phosphatidylserine binding site and prevents activation. For measurements of bryostatin activation, 1,2-diacylglycerol was omitted unless otherwise stated.
To determine their PKC isozyme specificity, the new compounds were preincubated with purified PKC for five minutes and the PKC activity was measured radiometrically.

a-secretase = conditions: human fibroblasts, cited from earlier work
TACE [1] = assay: TACE assay in rat primary neurons; format: cell-based; conditions: primary neurons from rat hippocampus; FIGS. 9b, c
Procedure: (§2) TACE Assay. TACE was measured by incubating 5 μl cell homogenate, 3 μl buffer (50 mM Tris-HCl 7.4 plus 25 mM NaCl plus 4% glycerol), and 1 of 100 μM TACE substrate IV (Aβz-LAQAVRSSSR-DPa) (Calbiochem) for 20 min at 37° in 1.5-ml polypropylene centrifuge tubes (Jin et al., Anal Biochem. 2002; 302: 269-75). The reaction was stopped by cooling to 4° C. The samples were diluted to 1 ml and the fluorescence was rapidly measured (ex=320 nm, em=420 nm) in a Spex Fluorolog 2 spectrofluorometer.

rats = conditions: cited from earlier work
PKC [2] = assay: PKC activity time course in rat H19-7/IGF-IR hippocampal cells; format: cell-based
Procedure: (§3) Cell culture. Rat hippocampal H19-71GF-IR cells (ATCC, Manassas, Va.) were plated onto poly-L-lysine coated plates and grown at 35° C. in DMEM/10% FCS for several days until about 50% coverage was obtained. The cells were then induced to differentiate into a neuronal phenotype by replacing the medium with 5 ml N2 medium containing 10 ng/ml basic fibroblast growth factor at 39° C. and grown in T-75 flasks at 37° C. Human SH-SY5Y neuroblastoma cells (ATCC) were cultured in 45% F12K/45% MEM/10% FCS. Mouse N2A neuroblastoma cells were cultured in DMEM/10% FCS without glutamine. Rat hippocampal neurons from 18-day-old embryonic
as §1

TACE [3] = assay: TACE assay in N2a mouse neuroblastoma cells; format: cell-based; conditions: FIG. 9a
Procedure: as §2

[4] = tested on: Endothelin-converting enzyme (ECE); assay: ECE assay in SH-SY5Y neuroblastoma cells; format: cell-based, human; conditions: bryostatin 0.27 nM, BR-101 1 μM, BR-111 1 μM; FIG. 10
Procedure: ECE assay. SH-S757 neuroblastoma cells were incubated with bryostatin (0.27 nM), BR-101 (PCP-LA) (1 μM), and BR-111 (DHA-CP6) (1 μM). Endothelin-converting enzyme (ECE) was measured fluorimetrically using the method of Johnson and Ahn, Anal. Biochem. 2000; 286: 112-118. A sample of cell homogenate (20 μl) was incubated in 50 mM MES-KOH, pH 6.0, 0.01% C12E10 (polyoxyethylene-10-tauryl ether), and 15 μM McaBK2. (7-Methoxycournarin-4-acetyl [Ala7-(2,4-Dinitrophenyl)Lys9]-bradykinin trifluoroacetate salt) (Sigma-Aldrich). After 60 min at 37° C., the reaction was quenched by adding trifluoroacetic acid to 0.5%. The sample was diluted to 1.4 ml with water and the fluorescence was measured at ex=334 nm, em=398 nm.

[5] = tested on: SH-SY5Y neuroblastoma cells; assay: Cell survival and proliferation (alamar Blue, CyQuant) in SH-SY5Y neuroblastoma cells; format: cell-based, human; conditions: alamar Blue; FIG. 11a
Procedure: (§4) AB Measurement and Cell Viability Assay. Aβ was measured using an Aβ1-42 human fluorimetric ELISA kit (Invitrogen) according to the manufacturer's instructions. Results were measured in a Biotek Synergy HT microplate reader. AlamarBlue and CyQuant NF (Invitrogen) according to the manufacturer's instructions.

Aβ = Aβ levels in N2a neuroblastoma cells transfected with human APPSwe/PSID (Aβ1-42 ELISA); format: cell-based, mouse; conditions: 24 h incubation, various concentrations
Procedure: as §3, §4
To measure the effects of PKCε activation on Aβ production, we used mouse neuro2a (N2a) neuroblastoma cells transfected with human APPSwe/PSID, which produce large quantities of Aβ. Petanceska et al., J Neurochem. 1996; 74: 1878-84. […] With bryostatin, which activates PKC by binding to the diacylglycerol-binding site, the inhibition was biphasic, with concentrations of 20 nM or higher producing no net effect. This may be explained by the ability of this class of PKC activators to downregulate PKC when used at high concentrations.

PKC [6] = conditions: read-out: affinity for PKC, ECS50; cited from earlier work

Compound: CCCCCC1OC1C/C=C\CCCCCCCC(=O)OC (stereo in doubt) [BR-117, vernolic acid methyl ester]
- effect on PKC (PKCε; FIG. 4): little or no effect

Compound: CCC1CC1CC1CC1CC1CC1CCCCCCCCO (stereo not drawn) [BR-104, linolenic alcohol tricyclopropane]
- effect on PKC (PKCε; FIG. 4): little or no effect

Compound: CCCCCC1CC1CC1CC1CCCCCCCCO (stereo not drawn) [BR-105, linoleic alcohol dicyclopropane]
- effect on PKC (PKCε; FIG. 4): little or no effect

Compound: CCCCC[C@H]1O[C@H]1CC1CC1CCCCCCCC(=O)OC (stereo partly drawn) [BR-109, vernolic acid methyl ester cyclopropane]
- effect on PKCε (PKCε; at concentrations above 1 μM, FIG. 4): inhibited

Compound: CCC1CC1CC1CC1CC1CC1CC1CC1CC1CC1CCCC(=O)OC (stereo not drawn) [BR-114]
- activation of purified PKCε (PKCε): activated purified PKCε to a similar extent
- concentration needed to activate PKC, times lower than for BR-101 (DCP-LA) (PKCε): approx. 100 times

Compound: CCCCCC1CC1CC1CC1CC1CC1CC1CC1CCCC(=O)OC (stereo not drawn) [BR-115]
- activation of purified PKCε (PKCε): activated purified PKCε to a similar extent
- concentration needed to activate PKC, times lower than for BR-101 (DCP-LA) (PKCε): approx. 100 times

Compound: CCC/C=C/C=C/C(=O)O[C@H]1/C(=C/C(=O)OC)C[C@H]2C[C@H]([C@@H](C)O)OC(=O)C[C@H](O)C[C@@H]3C[C@H](OC(C)=O)C(C)(C)[C@](O)(C[C@@H]4C/C(=C/C(=O)OC)C[C@H](/C=C/C(C)(C)[C@]1(O)O2)O4)O3 [bryostatin]
- increase in initial rate of a-secretase activity (a-secretase; 10 pM): 16 fold
- increase in initial rate of a-secretase activity (a-secretase; 100 pM): 132 fold
- TACE activity (TACE [1]): small increases
- rate of learning (rats): dramatically increase the rate of learning
- downregulation of PKC following activation (PKC [2]; 0.04 nM and 0.2 nM): 20%
- time by which PKC downregulation returned to baseline (PKC [2]; 0.04 nM and 0.2 nM): ≤ 24 h
- activation of PKC (PKC [2]; 0.04 nM and 0.2 nM, data not shown): 2 fold
- PKC activity (downregulation) at 8 h (PKC [2]; data not shown): at or near the baseline
- TACE activity (TACE [3]): small increases
- ECE activity [4]: sustained increase
- effect on cell survival [5]: no effect
- levels of intracellular Aβ (Aβ; FIG. 7a): markedly reduced
- levels of secreted Aβ (Aβ; FIG. 7b): markedly reduced

Compound: CCCCCCCCCCCCCC(=O)O[C@@H]1[C@@H](C)[C@@]2(O)[C@@H](C=C(CO)C[C@]3(O)C(=O)C(C)=C[C@@H]23)[C@@H]2C(C)(C)[C@]12OC(C)=O [phorbol 12-myristate 13-acetate]
- PKC activity (downregulation) at 8 h (PKC [2]; data not shown): strongly downregulated

Compound: epoxystearic acid [BR-116]
- effect on PKC (PKCε; FIG. 4): little or no effect
